Source: patent publication US20190077774A1, “PEROXISOME PROLIFERATOR-ACTIVATED RECEPTOR AGONISTS” (City of Hope, priority 2017, published 2019)

Experiments:
[1] = target: T1, PPARα (Homo sapiens, UniProt Q07869); assay: PPRE-luc reporter assay in CV-1 cells co-transfected with PPARα and RXRα expression plasmids; assay type: cell-based; details: luciferase reporter
T1 construct: expressed in transfected cells; host or cells: CV-1 (monkey kidney) cells
T1 sequence (Q07869 1-468): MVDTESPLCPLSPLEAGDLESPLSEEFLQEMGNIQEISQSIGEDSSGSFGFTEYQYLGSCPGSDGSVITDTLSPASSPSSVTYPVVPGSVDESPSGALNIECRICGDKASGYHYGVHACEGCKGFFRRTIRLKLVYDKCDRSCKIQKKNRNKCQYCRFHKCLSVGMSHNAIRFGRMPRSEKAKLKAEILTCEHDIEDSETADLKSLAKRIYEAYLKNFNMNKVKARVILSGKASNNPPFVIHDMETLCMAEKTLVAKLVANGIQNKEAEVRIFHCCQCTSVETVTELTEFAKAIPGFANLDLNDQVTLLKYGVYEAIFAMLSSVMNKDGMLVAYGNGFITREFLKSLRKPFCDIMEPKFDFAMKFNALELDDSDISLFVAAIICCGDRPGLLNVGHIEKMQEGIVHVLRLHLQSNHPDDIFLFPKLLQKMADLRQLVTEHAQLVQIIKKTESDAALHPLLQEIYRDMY
T1 sequence (P19793 1-462 partner): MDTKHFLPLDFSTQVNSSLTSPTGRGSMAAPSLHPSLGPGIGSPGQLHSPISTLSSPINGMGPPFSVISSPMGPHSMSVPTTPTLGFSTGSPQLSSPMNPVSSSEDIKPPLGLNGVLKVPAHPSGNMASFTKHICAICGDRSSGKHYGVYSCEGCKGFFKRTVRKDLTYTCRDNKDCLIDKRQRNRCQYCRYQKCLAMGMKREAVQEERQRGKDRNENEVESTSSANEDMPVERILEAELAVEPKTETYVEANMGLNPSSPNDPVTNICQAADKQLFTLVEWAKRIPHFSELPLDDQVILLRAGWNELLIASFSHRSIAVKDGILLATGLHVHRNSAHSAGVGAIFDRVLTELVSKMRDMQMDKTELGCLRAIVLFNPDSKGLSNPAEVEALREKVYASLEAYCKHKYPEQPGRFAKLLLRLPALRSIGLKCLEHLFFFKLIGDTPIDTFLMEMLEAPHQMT
Description: In brief, monkey kidney CV-1 cells were co-transfected with appropriate reporter constructs and expression vectors. The fold activation of the reporter construct by ligand was determined at several concentrations of selected compounds (FIG. 4).^20 To examine the effect of DY-compound on PPARα-mediated PPRE transcriptional activation, a PPRE-luc reporter assay was conducted using a PPRE-driven luciferase reporter-gene (PPRE-luc) plasmid and PPARα and RXRα gene expression plasmids in CV-1 cells.

[2] = target: T2, human PPARα (Homo sapiens, UniProt Q07869); assay: PPAR-GAL4 transactivation assay in transiently transfected CV-1 cells; assay type: cell-based; details: PPAR-GAL4 chimeric receptor, CV-1 cells; read-out: EC50(nM) hPPARα
T2 construct: expressed in transfected cells; host or cells: CV-1 (monkey kidney) cells, transient transfection
T2 sequence (Q07869 159-468): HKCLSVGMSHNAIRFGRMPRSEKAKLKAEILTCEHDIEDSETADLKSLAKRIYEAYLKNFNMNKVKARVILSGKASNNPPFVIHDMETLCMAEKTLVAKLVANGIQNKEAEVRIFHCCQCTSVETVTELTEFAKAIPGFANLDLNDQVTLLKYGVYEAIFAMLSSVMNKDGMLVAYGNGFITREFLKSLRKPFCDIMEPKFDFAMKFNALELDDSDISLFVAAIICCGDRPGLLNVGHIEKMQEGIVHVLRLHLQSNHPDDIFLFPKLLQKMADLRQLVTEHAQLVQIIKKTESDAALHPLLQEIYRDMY
Description: (§1) To assess the functional transcriptional activity of these compounds, cell-based assays using chimeric receptor Gal4 DNA-binding domain (DBD)-NR ligand binding domain cotransfection assay (LBDs of PPARα, PPARγ, and PPARδ) were performed. As an initial screen to determine the PPARα activity and selectivity, all compounds were evaluated for in vitro potency and selectivity by transfection testing, using CV-1 cells transfected with human and mouse PPARs. MH100×4 is a luciferase reporter with four copies of a GAL4 UASG response element, where GAL-I refers to the ligand-binding domain of the indicated receptor fused to the C-terminus of the GAL4 DNA-binding domain. Assays were performed using a Biomek automated workstation in which the genes for the nuclear receptor, as well as a plasmid containing a response element upstream of a luciferase cDNA, are transfected into CV-1 cells. Compounds were evaluated for their ability to activate human and mouse PPARs at […] test concentrations. […] The transactivation activity of the series of compounds (DY121-132, 10a-g) toward PPARα was expressed as EC50, which is the concentration of the test compound that affords half-maximum activity, as summarized in Table 1.
Cell-based reporter gene assays Cell based transactivation assays were performed in CV 1 cells as described (Forman, et al.). PPARα activity was assayed with a GAL4 reporter construct and fusion proteins containing the ligand binding domains of human PPARα, human PPARγ and human PPARδ linked to the DNA binding domain of yeast GAL4. Reporter constructs (300 ng/10^5 cells) and cytomegalovirus-driven expression vectors (20-50 ng/10^5 cells) were added as indicated along with CMX-b-gal (500 ng/10^5 cells) as an internal control. Cells were transiently transfected by Lipofectamine as described. Cells were incubated with DNA complexed liposomes for 2 h and subsequently treated for approximately 45 h with phenol red free DMEM FBS containing the indicated compounds. After exposure to ligand, the cells were harvested and assayed for luciferase and β-galactosidase activity. All points were assayed in triplicate and varied by less than 15%. Each experiment was repeated three or more times with similar results. Fold activation is reported.
(§2) In vitro binding and transfection studies. As an initial screen to determine the PPARα, PPARγ, and PPARδ activity, all compounds were evaluated for in vitro potency and selectivity by transfection testing, using CV-1 cells transfected with human and mouse PPARs. MH100×4 is a luciferase reporter with four copies of a GAL4 USAG response element, where GAL-I refers to the ligand-binding domain of the indicated receptor fused to the C-terminus of the GAL4 DNA-binding domain. Assays were performed using a Biomek automated workstation in which the gene for the nuclear receptor, as well as a plasmid containing a response element upstream of a luciferase cDNA, are transfected into CV-1 cells. Compounds were evaluated for their ability to activate human PPARs at 1, 2.5, 3, and 5 uM test concentrations.
(§3) Compounds were screened for agonist activity towards PPAR-GAL4 chimeric receptors in transiently transfected CV-1 cells as described. EC50 is the concentration of test compound that gave 50% maximum efficacy.

[3] = target: T3, mouse PPARα (Mus musculus, UniProt P23204); assay: as above; assay type: cell-based; details: PPAR-GAL4 chimeric receptor, read-out: EC50(nM) mPPARα
T3 construct: expressed in transfected cells; host or cells: CV-1 (monkey kidney) cells, transient transfection
T3 sequence (P23204 159-468): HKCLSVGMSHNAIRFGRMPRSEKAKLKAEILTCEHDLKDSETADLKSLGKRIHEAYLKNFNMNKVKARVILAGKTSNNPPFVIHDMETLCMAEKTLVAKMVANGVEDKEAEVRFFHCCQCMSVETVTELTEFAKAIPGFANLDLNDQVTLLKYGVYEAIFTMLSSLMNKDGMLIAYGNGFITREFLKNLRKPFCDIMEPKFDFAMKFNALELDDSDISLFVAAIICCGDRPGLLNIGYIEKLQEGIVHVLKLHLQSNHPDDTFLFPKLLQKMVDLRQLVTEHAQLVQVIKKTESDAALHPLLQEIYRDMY
Description: as §1, §2, §3

[4] = system: C57Bl/6J female mice; assay: Serum triglyceride and lipid effects in C57Bl/6J female mice; assay type: in vivo; details: FIG. 7

Row | PPARα activation / PPRE-luc activity [1] | EC50 [2] | EC50 [3] | Compound | dose-response of triglyceride suppression [4]
1 | highest PPARα activation | 1 nM | 3 nM | Cc1ccc(Cn2nc(CCCc3ccc(OC(C)(C)C(=O)O)cc3)n(Cc3ccc(C)cc3)c2=O)cc1 [10e, 2-(4-{3-[4-Methyl-benzyl-1-(4-methyl-benzyl)-5-oxo-4,5-dihydro-1H[1,2,4]triazol-3-yl]-propyl}-phenoxy)-2-methyl-propionic acid] | 
2 |  | 3 nM | 30 nM | COc1cc(Cn2c(CCCc3ccc(OC(C)(C)C(=O)O)cc3)nn(Cc3ccc(C)cc3)c2=O)cc(OC)c1OC [10f, 2-(4-{3-[3,4,5-Trimethoxy-benzyl-1-(4-methyl-benzyl)-5-oxo-4,5-dihydro-1H[1,2,4]triazol-3-yl]-propyl}-phenoxy)-2-methyl-propionic acid] | Dose-response suppression
3 |  | 1.5 nM | 20 nM | Cc1ccc(Cn2nc(CCCc3ccc(OC(C)(C)C(=O)O)cc3)n(Cc3ccccc3)c2=O)cc1 [10c, 2-(4-{3-[4-Benzyl-1-(4-methyl-benzyl)-5-oxo-4,5-dihydro-1H[1,2,4]triazol-3-yl]-propyl}-phenoxy)-2-methyl-propionic acid] | 
4 | highest PPARα activation | 1 nM | 10 nM | Cc1ccc(Cn2nc(CCCc3ccc(OC(C)(C)C(=O)O)cc3)n(Cc3ccccc3Cl)c2=O)cc1 [10g, 2-(4-{3-[2-Chloro-benzyl-1-(4-methyl-benzyl)-5-oxo-4,5-dihydro-11H[1,2,4]triazol-3-yl]-propyl}-phenoxy)-2-methyl-propionic acid] | Dose-response suppression
5 |  | 2 nM | 20 nM | COc1cccc(Cn2c(CCCc3ccc(OC(C)(C)C(=O)O)cc3)nn(Cc3ccc(C)cc3)c2=O)c1 [10b, 2-(4-{3-[4-(3-Methoxy-benzyl)-1-(4-methyl-benzyl)-5-oxo-4,5-dihydro-1H[1,2,4]triazol-3-yl]-propyl}-phenoxy)-2-methyl-propionic acid] | 
6 |  | 12 nM | 20 nM | C=Cc1ccc(Cn2nc(CCCc3ccc(OC(C)(C)C(=O)O)cc3)n(Cc3ccc(C)cc3)c2=O)cc1 [10h] | 
7 |  | 1.5 nM | 10 nM | Cc1ccc(Cn2nc(CCCc3ccc(OC(C)(C)C(=O)O)cc3)n(Cc3ccc(F)cc3)c2=O)cc1 [10d, 2-(4-{3-[4-Fluoro-benzyl-1-(4-methyl-benzyl)-5-oxo-4,5-dihydro-1H[1,2,4]triazol-3-yl]-propyl}-phenoxy)-2-methyl-propionic acid] | 
